Earlier results in patent publication US20090105632A1 (priority 2007, published 2009).

Tests used:
Parkinson's disease = conditions: lisuride administration at about 1.1 mg/day
[1] = 10 mM citrate buffer at pH 5
[2] = oral route, metabolized by the liver

SMILES: CCN(CC)C(=O)N[C@H]1C=C2c3cccc4[nH]cc(c34)C[C@H]2N(C)C1 [lisuride, N′-[(8α)-9,10-didehydro-6-methylergolin-8-yl]-N,N-diethylurea]
- antiparkinsonian response (Parkinson's disease): equal to that achieved with doses of levopoda monotherapy of 668 mg/day
- pKa: about 8
- solubility [1]: about 1.8 mg/ml
- bioavailability [2]: about 25%
